Test results taken from paper PMC5619856, “One enzyme, many reactions: structural basis for the various reactions catalyzed by naphthalene 1,2-dioxygenase” (IUCrJ, 2017).

What follows are molecules tested against T1, naphthalene 1,2-dioxygenase (NDO) (Pseudomonas putida, UniProt P0A110) (assay: X-ray crystal structure (soaked crystal)). Conditions: active site, multiple orientations; crystals pH 5.0-5.8; soaked at least two weeks.
T1 construct: gene ndoB; wild-type terminal oxygenase component, plasmid pDTG121 in E. coli DE3 Star, no tag mentioned; alpha3beta3 hexamer with Rieske [2Fe-2S] and mononuclear iron; with Naphthalene 1,2-dioxygenase system, small oxygenase component
T1 sequence (P0A110 1-449): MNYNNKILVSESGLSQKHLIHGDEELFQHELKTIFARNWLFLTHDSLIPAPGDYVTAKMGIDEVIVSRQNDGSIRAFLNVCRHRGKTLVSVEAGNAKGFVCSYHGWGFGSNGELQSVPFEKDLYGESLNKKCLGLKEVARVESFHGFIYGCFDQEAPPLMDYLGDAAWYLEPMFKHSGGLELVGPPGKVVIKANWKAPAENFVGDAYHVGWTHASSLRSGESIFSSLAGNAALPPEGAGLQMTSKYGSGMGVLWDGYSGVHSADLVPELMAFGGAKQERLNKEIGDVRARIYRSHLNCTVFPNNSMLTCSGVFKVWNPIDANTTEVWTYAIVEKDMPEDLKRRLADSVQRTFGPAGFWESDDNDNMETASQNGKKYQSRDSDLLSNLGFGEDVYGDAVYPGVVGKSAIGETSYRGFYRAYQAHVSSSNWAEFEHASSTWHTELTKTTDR
T1 sequence (P0A112 1-194 partner): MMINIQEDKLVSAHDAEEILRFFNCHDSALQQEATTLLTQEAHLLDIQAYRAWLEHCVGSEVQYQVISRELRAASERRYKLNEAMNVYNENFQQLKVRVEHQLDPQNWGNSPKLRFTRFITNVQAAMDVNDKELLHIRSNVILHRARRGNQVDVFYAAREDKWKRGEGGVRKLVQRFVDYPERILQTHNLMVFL
Assay type: binding

SMILES	X-ray crystal structure (soaked crystal)
CCOc1ccccc1 [phenetole]	structures of phenetole, thioanisole and ethylphenylsulfide in complex with NDO were solved
CSc1ccccc1 [thioanisole]	structures of phenetole, thioanisole and ethylphenylsulfide in complex with NDO were solved
CCSc1ccccc1 [ethylphenylsulfide]	structures of phenetole, thioanisole and ethylphenylsulfide in complex with NDO were solved
